For one assay, the target named is T1, recombinant MMP-2 (Homo sapiens, UniProt P08253).
T1 construct: purchased ab139446
T1 sequence (P08253 110-660): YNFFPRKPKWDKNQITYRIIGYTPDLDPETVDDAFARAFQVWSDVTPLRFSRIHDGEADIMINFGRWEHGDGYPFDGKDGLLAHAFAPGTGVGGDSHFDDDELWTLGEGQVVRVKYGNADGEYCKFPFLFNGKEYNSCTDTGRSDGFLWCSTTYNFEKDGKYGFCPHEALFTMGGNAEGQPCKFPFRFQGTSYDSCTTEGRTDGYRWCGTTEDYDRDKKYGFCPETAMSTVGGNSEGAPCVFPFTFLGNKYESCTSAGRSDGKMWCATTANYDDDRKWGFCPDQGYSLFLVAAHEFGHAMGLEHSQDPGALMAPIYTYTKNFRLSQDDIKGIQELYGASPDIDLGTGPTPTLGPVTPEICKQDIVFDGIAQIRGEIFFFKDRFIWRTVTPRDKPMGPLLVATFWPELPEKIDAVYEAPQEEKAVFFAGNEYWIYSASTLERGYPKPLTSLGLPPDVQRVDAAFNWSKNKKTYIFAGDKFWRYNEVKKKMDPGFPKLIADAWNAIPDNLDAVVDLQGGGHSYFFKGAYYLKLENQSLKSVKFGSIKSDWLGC
In words: MMP-2 Inhibitor Screening Assay Kit (colorimetric). The conditions noted are these: lower value = higher inhibitory activity. Type of assay: biochemical. The protocol: MMP-2 is an important target for inhibitor screening due to its involvement in cancer growth, angiogenesis, and metastasis. The MMP-2 screening assay was carried out with a commercially available MMP-2 Inhibitor Screening Assay Kit (Colorimetric, Catalog: ab139446) based on the manufacturers protocol. This assay is based on quantification of recombinant MMP-2 activity using a colorimetric assay (MMP-2 degrades a chromogenic substrate). The assay provides NNGH (N-isobutyl-N-(4-methoxyphenylsulfonyl) glycyl hydroxamic acid), a small molecule inhibitor, as a positive control (NNGH). […] Each determination was run in duplicate.
% Inhibition rate=(Vinhibitor/Vcontrol)×100
Briefly, MMP Substrate and MMP Inhibitor were warmed to room temperature to thaw DMSO. MMP Inhibitor (NNGH), MMP-2 substrate and MMP-2 enzyme were diluted with assay buffer to required concentration. 20 μL of MMP-2 enzyme and MMP-2 inhibitor (peptides, Chlorotoxin and NNGH) was added, then 50 μL of assay buffer was added and the reaction mixture incubated at 37° C. for 1 h. After incubation, 10 μL of MMP Substrate was added to start reaction. The reactions were continuously read at 412 nm in a microplate reader. Data was recorded at 1 min. time intervals for 10 to 20 min. The data as was plotted as optical density (OD) versus time for each sample. The reaction velocity (V) was obtained in OD/min: determine the slope of a line fit to the linear portion of the data plot using an appropriate routine. Then using the equation above the inhibitor % activity remaining was calculated. The control was without inhibitor.

A further assay concerns U87 cells. In words: BME cell invasion assay, U87. Type of assay: cell-based, human. The settings on record: 1 μM, 24 h. As to the method:
(§1) To assess whether the ability of SEQ ID NO.1 to inhibit MMP-2 activity and, to a lesser extent, reduce the production of matrix proteinases and downregulate the expression of EMT markers, was of functional consequence in reducing the invasiveness of the GBM cells, the ability of the peptide was tested at the concentrations of 1, 10 and 100 μM (none of which are toxic to cells) to inhibit invasion of the GBM cells through a basement membrane. This assay, described in more detail below, is an in vitro surrogate for measurement of the in vivo invasion by tumour cells of their environment.
(§2) The cell invasion assay employs a simplified Boyden chamber-like design that consists of two chambers separated by a filter (an 8 μm polycarbonate (PC) membrane) coated with basement membrane or different extracellular matrix components. The cell suspension is placed in the top chamber and incubated in the presence of test media containing specific chemo-attractants in the bottom chamber. Cells migrate from the top chamber to the bottom of the filter by degrading the coating over the filter pores. Detection of cell invasion is quantified using Calcein AM. Cell dissociation/Calcein AM solution is placed in the bottom chamber to dissociate the migrating cells from the filter. Calcein AM is internalized by the cells, and intracellular-esterases cleave the aceto-methylester (AM) moiety. Free Calcein fluoresces brightly and is used to quantitate the number of cells that have invaded or migrated by comparison with a standard curve (In Vitro Technologies Pty Ltd, (https://lifescience.invitro.com.au/brands/r-and-d-systems/).
(§3) The filter was coated with PathClear® growth factor reduced BME. The selected peptides were applied to the cells in both upper and lower wells to make sure the concentration of peptides were the same and the chemoattractant was serum at a concentration of 2% (for adherent U87 & U251 cells) or growth factor mix required in the medium (for non- adherent, 081024 oncospheres).
(§4) Cell invasion was determined using CultureCoat® 96 Well Medium BME Cell Invasion assay. Briefly, the cells were pre-starved 24 h before harvest. Then seeding 25,000 per well of cell in the upper chamber with serum free medium together different concentration of peptide. The bottom chamber also added different concentration of peptides with 2% (V/V) serum for GBM adherent cells or growth factor mix for neurosphere cells as chemoattractant. After 24 h incubation, the invading cells were measured by Calcein AM and calculated based on standard curve.
(§5) The results are shown in Table 12, the results are expressed as % inhibition.

The test system of another assay is U251 cells. In words: BME cell invasion assay, U251. Type of assay: cell-based, human. The settings on record: 1 μM, 24 h. The protocol: as §1, §2, §3, §4, §5
For the next assay, the system named is 081024 cells. In words: BME cell invasion assay, 081024. The conditions noted are these: 1 μM, 24 h. Type of assay: cell-based, human. The protocol:
as §1, §2, §3, §4, §5

As to `COc1ccc(S(=O)(=O)N(CC(=O)NO)CC(C)C)cc1` [NNGH, N-isobutyl-N-(4-methoxyphenylsulfonyl) glycyl hydroxamic acid, reference compound], the remaining activity at recombinant MMP-2 (1.3 μM) came out at 2.29%.

Turning to Chlorotoxin [reference compound], the figures for the “Invasion Inhibition Index (%)” value in the assay with U87 cells, with U251 cells and in the assay with 081024 cells were 39.5%, 28.50% and 45.0%, respectively. Further, the remaining activity at recombinant MMP-2 (1 μM, 1 h preincubation at 37° C.) is on record as 67.94%.

The values are drawn from patent US20240059740A1, “CYCLIC PEPTIDES AND USES THEREOF” (PRE[…] INC., priority 2020, published 2024).
